Measurements: ChEMBL document CHEMBL1201862, “PubChem BioAssay data set” (2004)
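Exposure lasted 48 hours, with cells grown in 96-well plates and compounds tested at five concentrations. Here, GI50 denotes the concentration required for 50% inhibition of growth.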 The source made the active and inactive calls. Rule as the data show it: active = GI50 up to about 1.1 µM and inactive = higher.

How the values were obtained:
Experiment in all cases: NCI anticancer screen, dose series, 48 h
[1] = tested on: RPMI-8226
[2] = tested on: NCI-H226
[3] = tested on: SW-620
[4] = tested on: UACC-62
[5] = tested on: Hs-578T
[6] = tested on: U-251
[7] = tested on: BT-549
[8] = tested on: CAKI-1
[9] = tested on: M14
[10] = tested on: SN12C
[11] = tested on: A549
[12] = tested on: T47D
[13] = tested on: COLO 205
[14] = tested on: UACC-257
[15] = tested on: IGROV-1
[16] = tested on: SK-MEL-2
[17] = tested on: 786-0
[18] = tested on: RXF 393
[19] = tested on: SNB-75

Measured: GI50

Oc1nc(S)nc2c1CN(CCCN1CCOCC1)CN2
inactive: [1] 26.9 µM | [2] > 100 µM | [3] 32 µM | [4] 19.7 µM | [5] > 100 µM | [6] 33.5 µM | [7] 75.2 µM | [8] 30.4 µM | [9] 25.5 µM | [10] 46.7 µM | [11] 38.6 µM | [12] 35.4 µM | [13] 18.3 µM | [14] 40.2 µM | [15] 40.6 µM | [16] 19.9 µM | [17] 40.4 µM

CCCCCCCCCCCCCCCc1nnc(SCC(=O)O)[nH]1
inactive: [18] > 100 µM | [1] 78.2 µM | [3] 95.5 µM | [4] 42.2 µM | [6] 26.4 µM | [8] 63.2 µM | [9] 19.3 µM | [10] 71.9 µM | [11] 79.1 µM | [14] > 100 µM | [15] 36.1 µM | [16] 37.9 µM | [17] 18.5 µM

Cc1cc(NS(=O)(=O)c2ccc(NC(NC(=O)OC(C)C)(C(F)(F)F)C(F)(F)F)cc2)nc(C)n1
inactive: [18] > 100 µM | [1] > 100 µM | [2] > 100 µM | [3] > 100 µM | [4] > 100 µM | [5] > 100 µM | [6] > 100 µM | [19] > 100 µM | [8] > 100 µM | [9] > 100 µM | [10] > 100 µM | [11] > 100 µM | [12] 60.7 µM | [13] > 100 µM | [14] > 100 µM | [15] > 100 µM | [17] > 100 µM

CCCCn1c2c(c3ccccc3c1=O)C(=O)c1ccccc1-2
inactive: [1] > 100 µM | [2] > 100 µM | [3] > 100 µM | [4] > 100 µM | [5] 33.7 µM | [6] 66.1 µM | [19] 37.2 µM | [7] > 100 µM | [8] 25.9 µM | [9] > 100 µM | [10] > 100 µM | [11] 25 µM | [12] 16.2 µM | [13] 20.4 µM | [14] > 100 µM | [15] 76.7 µM | [16] > 100 µM | [17] 25.3 µM

NS(=O)(=O)c1nnc(NS(=O)(=O)c2ccc([N+](=O)[O-])cc2)s1
inactive: [18] > 100 µM | [1] 21.4 µM | [2] > 100 µM | [3] > 100 µM | [4] > 100 µM | [6] > 100 µM | [19] > 100 µM | [7] > 100 µM | [8] > 100 µM | [9] > 100 µM | [11] > 100 µM | [12] 34.9 µM | [13] > 100 µM | [15] > 100 µM | [16] > 100 µM | [17] 37.1 µM

COc1ccc(/C=C2\N=C(SC)N(CN3CCCCC3)C2=O)cc1
inactive: [1] > 100 µM | [2] > 100 µM | [3] > 100 µM | [4] > 100 µM | [5] > 100 µM | [6] > 100 µM | [19] > 100 µM | [9] > 100 µM | [10] > 100 µM | [11] > 100 µM | [13] > 100 µM | [15] > 100 µM | [16] > 100 µM | [17] > 100 µM

c1cc(-c2ccc(-c3ccc(-c4ccc(-c5cccc6nsnc56)[nH]4)c4nsnc34)[nH]2)c2nsnc2c1
inactive: [1] > 100 µM | [2] > 100 µM | [3] > 100 µM | [4] > 100 µM | [5] > 100 µM | [6] > 100 µM | [19] > 100 µM | [7] > 100 µM | [9] > 100 µM | [10] > 100 µM | [11] > 100 µM | [12] > 100 µM | [13] > 100 µM | [15] > 100 µM | [16] > 100 µM | [17] > 100 µM

CCSC(SCC)=C1C(=O)N(c2ccccc2)N=C1C
inactive: [18] 1.95 µM | [1] 7.67 µM | [2] 15.7 µM | [3] 7.66 µM | [4] 13.7 µM | [19] 20.6 µM | [8] 3.8 µM | [9] 13.6 µM | [10] 16.1 µM | [11] 18.1 µM | [13] 2.27 µM | [14] 4.06 µM | [15] 17.4 µM | [16] 15.8 µM | [17] 13.1 µM

C=C(C)C1Cc2cc(C(C)=O)ccc2O1 (stereo not given)
inactive: [1] > 100 µM | [2] > 100 µM | [3] > 100 µM | [4] > 100 µM | [5] > 100 µM | [6] > 100 µM | [19] > 100 µM | [7] > 100 µM | [8] > 100 µM | [9] > 100 µM | [10] > 100 µM | [11] > 100 µM | [12] > 100 µM | [13] > 100 µM | [14] > 100 µM | [15] > 100 µM | [16] > 100 µM | [17] > 100 µM

O=C(CSc1nnc(-c2ccccn2)s1)N/N=C/c1ccccc1
inactive: [2] > 100 µM | [3] > 100 µM | [4] > 100 µM | [5] > 100 µM | [6] 54.5 µM | [19] 3.03 µM | [7] > 100 µM | [8] > 100 µM | [9] > 100 µM | [10] > 100 µM | [11] > 100 µM | [12] 46.8 µM | [13] > 100 µM | [14] > 100 µM | [15] > 100 µM | [16] > 100 µM | [17] 76.9 µM

CC(=O)Nc1ccc(/N=C2\C(c3ccccc3)=C(SC3=C(c4ccccc4)/C(=N\c4ccc(NC(C)=O)cc4)c4ccccc43)c3ccccc32)cc1
inactive: [18] 21.6 µM | [1] 19.4 µM | [2] 53.6 µM | [3] 40.2 µM | [6] 49.8 µM | [19] 23.2 µM | [7] 24.8 µM | [8] 31.4 µM | [9] 27 µM | [10] 61.2 µM | [11] 37.2 µM | [12] 12.9 µM | [13] 32 µM | [14] 46 µM | [15] 32.1 µM | [16] 39.5 µM | [17] 37.3 µM

C=C1c2nc3ccccc3n2C=C(c2ccccc2)N1c1ccc(C)cc1
inactive: [18] 59.6 µM | [1] 19.5 µM | [2] 68.7 µM | [3] 71.1 µM | [4] 64.4 µM | [6] 88.1 µM | [19] > 100 µM | [7] 49.9 µM | [8] 32.8 µM | [9] > 100 µM | [10] 85.5 µM | [11] > 100 µM | [13] 73.5 µM | [14] 80.4 µM | [15] > 100 µM | [16] > 100 µM | [17] 45.3 µM

COc1ccc(C(CCC(C)=O)C(=O)O)cc1OC (stereo not given)
inactive: [18] > 100 µM | [1] > 100 µM | [3] > 100 µM | [4] > 100 µM | [6] > 100 µM | [19] > 100 µM | [8] > 100 µM | [10] > 100 µM | [11] > 100 µM | [13] > 100 µM | [14] > 100 µM | [15] > 100 µM | [16] > 100 µM | [17] > 100 µM

CCOC(=O)c1ccc(/N=N/N(C)C(=O)C(C)N)cc1 (stereo not given)
inactive: [18] > 100 µM | [1] > 100 µM | [2] > 100 µM | [3] > 100 µM | [4] > 100 µM | [6] > 100 µM | [19] 55.8 µM | [7] 98.6 µM | [8] 92.5 µM | [9] > 100 µM | [10] > 100 µM | [12] > 100 µM | [13] > 100 µM | [14] > 100 µM | [15] 72.4 µM | [16] > 100 µM | [17] > 100 µM

CCOC1CC(C)N(C(=O)c2ccccc2)O1 (stereo not given)
inactive: [18] > 100 µM | [2] > 100 µM | [3] > 100 µM | [4] > 100 µM | [5] > 100 µM | [6] > 100 µM | [7] > 100 µM | [9] > 100 µM | [10] > 100 µM | [11] > 100 µM | [12] > 100 µM | [15] > 100 µM | [17] > 100 µM

CC(C)(C)[Si](C)(C)OCC1CCC(n2cnc3c(=O)[nH]cnc32)O1 (stereo not given)
inactive: [18] > 100 µM | [1] 65.5 µM | [2] 77.6 µM | [3] > 100 µM | [4] 35.7 µM | [5] 58.2 µM | [6] > 100 µM | [19] 20.3 µM | [8] > 100 µM | [9] > 100 µM | [10] > 100 µM | [11] > 100 µM | [12] 82.8 µM | [13] > 100 µM | [14] > 100 µM | [15] > 100 µM | [16] > 100 µM | [17] > 100 µM

Cc1ccccc1NC(=N)Nc1ccccc1C
inactive: [18] > 100 µM | [1] > 100 µM | [2] > 100 µM | [3] > 100 µM | [4] > 100 µM | [5] > 100 µM | [6] > 100 µM | [19] 54.6 µM | [8] > 100 µM | [9] 66.8 µM | [10] > 100 µM | [11] > 100 µM | [12] > 100 µM | [13] > 100 µM | [14] > 100 µM | [15] > 100 µM | [16] > 100 µM | [17] > 100 µM
